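All cell lines were grown in 96-well plates and treated with compound for 48 hours. GI50 = concentration required for 50% inhibition of growth. TGI is the concentration that stops growth completely.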
Columns and labels:
Assay in all cases: NCI anticancer screen, dose series, 48 h
[1] = test system: HT29 colon
[2] = test system: HCC-2998 colon
[3] = test system: SF-295 CNS
[4] = test system: HOP-62 NSCLC
[5] = test system: BT-549 breast
[6] = test system: SF-268 CNS
[7] = test system: UACC-257 melanoma
[8] = test system: MDA-MB-231 breast
[9] = test system: MOLT-4 leukemia
[10] = test system: OVCAR-3 ovarian

Row | Compound | TGI [1] [µM] | TGI [2] [µM] | TGI [3] [µM] | TGI [4] [µM] | TGI [5] [µM] | TGI [6] [µM] | TGI [7] [µM] | TGI [8] [µM] | TGI [9] [µM] | TGI [10] [µM] | GI50 [1] [µM] | GI50 [2] [µM] | GI50 [3] [µM] | GI50 [4] [µM] | GI50 [5] [µM] | GI50 [6] [µM] | GI50 [7] [µM] | GI50 [8] [µM] | GI50 [9] [µM] | GI50 [10] [µM]
1 | CNC(C)C(O)c1ccc2oc3cc(=O)c4ccccc4c-3nc2c1 (configuration not stated) | > 100 | > 100 | 15.6 | 18.1 | > 100 | > 100 | 33.4 | > 100 | 54.8 | 28.7 |  |  |  |  |  |  |  |  |  | 
2 | C(=Nc1ccc2c(c1)Cc1ccccc1-2)c1ccccn1 | > 100 |  | > 100 | > 100 | > 100 | > 100 | 79.1 | > 100 | > 100 | > 100 |  |  |  |  |  |  |  |  |  | 
3 | O=c1cc(CF)[nH]c(=S)[nH]1 | > 100 | > 100 | > 100 | > 100 | > 100 | > 100 | > 100 | > 100 | > 100 | > 100 |  |  |  |  |  |  |  |  |  | 
4 | COc1ccc(/C=N/n2cnc3c(c2=O)SC(=C(C#N)C#N)N3c2ccccc2)cc1 | > 100 | > 100 | > 100 | > 100 |  | > 100 | > 100 |  | > 100 | > 100 |  |  |  |  |  |  |  |  |  | 
5 | N[C@H](Cc1ccc2oc3cc(=O)c4ccccc4c-3nc2c1)C(=O)O | > 100 |  | > 100 | > 100 |  | > 100 | > 100 | > 100 | > 100 | > 100 |  |  |  |  |  |  |  |  |  | 
6 | CCCn1cnc2c(SCc3ccc(Cl)cc3)nc(N)nc21 | 43.5 | 52.5 | 45.9 | 44.4 | > 100 | > 100 | 41.8 | 60.1 |  | 41.3 |  |  |  |  |  |  |  |  |  | 
7 | O=C(N[C@@H](Cc1coc2ccccc12)B(O)O)[C@@H]1C[C@H]2CC[C@@H]1O2 | > 100 | 21.1 | 17.6 | 43.6 | 42.2 | > 100 | > 100 | > 100 | 48 | > 100 | 3.77 | 5.11 | 3.93 | 3.65 | 3.07 | 9.62 | 6.28 | 11.7 | 2.96 | 4.04
8 | CCCO[C@@H]1[C@@H](OC(C)=O)[C@@H](OC(C)=O)C(C)(C)/C=C/[C@H](C)C(=O)[C@@]2(OC(C)=O)C[C@@](C)(OC(C)=O)[C@H](OC(C)=O)[C@@H]2[C@H]2OC(=O)CC[C@@]12OC(=O)c1ccccc1 | > 25 | > 25 | > 25 | > 25 | > 25 | > 25 | > 25 | > 25 | > 25 | > 25 |  |  |  |  |  |  |  |  |  | 
9 | COc1ccc(C2COc3c(ccc(O)c3C)C2)cc1OC (configuration not stated) | > 200 | 121 | > 176 | > 200 |  | > 200 | > 200 |  | > 183 | > 195 |  |  |  |  |  |  |  |  |  | 
